A word on the IC50: it is the concentration at which inhibition is half-maximal.

The test system of data set [1] is MRC-5. Nature of the data set: MTT cytotoxicity assay, monolayer culture. The note with it: non-malignant cell line, read-out: IC50 (μM) ± S.D. MRC-5. The class given is cell-based, human. From the text: (§1) The cytotoxicity of metal-free indolobenzazocines HL^1–HL^5 and their metal complexes 1a, 1b, and 2–5 was investigated by the colorimetric MTT assay in a panel of four human cancer cell lines, namely, human colon carcinoma HCT116 and LS-174, breast adenocarcinoma MDA-MB-361, and lung adenocarcinoma A549, as well as in human non-malignant cell line MRC-5 maintained as monolayer culture. Cisplatin or cis-diamminedichloridoplatinum(II) (CDDP), a well-known chemotherapeutic agent, was used as a positive control. The results obtained after 72 h of continuous drug action are presented as IC50 values (μM) in Table 1.
(§2) Human tumor cell lines derived from human colorectal carcinoma, LS-174 and HCT116, human breast adenocarcinoma, MDA-MB-361, human lung adenocarcinoma, A549, and non-tumor human fetal lung fibroblast cell line, MRC-5, were maintained as a monolayer culture in the Roswell Park Memorial Institute (RPMI) 1640 nutrient medium (Sigma Chemicals Co, USA). RPMI 1640 medium was prepared in sterile ionized water, supplemented with penicillin (100 IU/mL), streptomycin (200 μg/mL), 4-(2-hydroxyethyl) piperazine-1-ethanesulfonic acid (HEPES) (25 mM), L-glutamine (3 mM), and 10% of heat-inactivated fetal calf serum (FCS) (pH = 7.2). The cells were grown at 37 °C in a humidified atmosphere containing 5% CO2.
(§3) Cells were seeded into 96-well culture plates (Thermo Scientific Nunc) at cell densities of 5000 cells per well (HCT116, A549, and MRC-5) and 8000 cells/well (LS-174 and MDA-MB-361) in 100 μL of cell culture medium and left overnight. Eleven tested compounds were dissolved in DMSO to the stock concentration of 20 mM immediately before the experiment, whereas further dilutions were made in the culture medium so that the final concentration of DMSO never exceeded 1% (v/v). Cisplatin (cis-diamminedichloridoplatinum(II), CDDP) was used as a reference compound. After 72 h of continuous incubation, MTT solution (3-(4.5-dimethylthiazol-2-yl)-2.5-diphenyltetrazolium bromide, Sigma-Aldrich) was added to each well (5 mg/mL).[63] The culture plates were incubated at 37 °C for the next 4 h, and finally, 10% sodium dodecyl sulfate (SDS) was added to dissolve formed formazan crystals. Absorbances were measured after 24 h on a microplate reader (Thermo Labsystems Multiscan EX 200–240 V) at a wavelength of 570 nm.
(In general: Formazan colour is commonly taken as a measure of viable cells.)

Data set [2] has as its system HCT116. Nature of the data set: MTT cytotoxicity assay, monolayer culture. The class given is cell-based, human. The note with it: 72 h continuous drug action, 2D monolayer, read-out: IC50 (μM) ± S.D. HCT116.
Description: as §1, §2, §3

Data set [3] deals with MDA-MB-361. The data set can be described thus: MTT cytotoxicity assay, monolayer culture. The class given is cell-based, human. The following applies: 72 h continuous drug action, 2D monolayer, read-out: IC50 (μM) ± S.D. MDA-MB-361.
Description: as §1, §2, §3

Data set [4] concerns LS-174. Nature of the data set: MTT cytotoxicity assay, monolayer culture. Type of data set: cell-based, human. The note with it: 2D monolayer, read-out: IC50 (μM) ± S.D. LS-174.
Description: as §1, §2, §3

Data set [5] has as its system A549. The data set can be described thus: MTT cytotoxicity assay, monolayer culture. The class given is cell-based, human. The following applies: 2D monolayer, read-out: IC50 (μM) ± S.D. A549.
Description: as §1, §2, §3

A short description of data set [6]: Stability in aqueous solution containing 1% DMSO by UV-vis spectroscopy. The class given is physicochemical. The following applies: over 48 h. As to the method: The stability of ligands HL^2 and HL^3 in aqueous solution containing 1% DMSO over 24 and 48 h was monitored by UV–vis spectroscopy (Figure S30 in the Supporting Information). Similarly, the behavior of complexes 1a and 1b as well as 2 and 3 was investigated in aqueous solutions containing 1% DMSO over 12 and 48 h by optical spectroscopy (Figures S31 and S32). […] High thermodynamic and kinetic stability of five-coordinate complexes reported herein can presumably be explained in terms of hard and soft acids and bases theory. Cu^2+ as a borderline metal ion is expected to bind to a soft base, for example, S atom instead of terminal N atom, as is the case for thiosemicarbazides. However, the hard–soft character of the metal ion might be altered by the other ligands attached due to symbiotic effects.[30] This might be the case herein, where bonding of copper(II) to four hard base ligands, namely, to two N atoms (N7 and N15 in Figure 1) and two Cl^– co-ligands, as well as to one borderline base N(pyridine) atom, can reduce the softness of Cu^2+, leading to increased stability of the complexes.

Data set [7] can be described thus: Solubility in water/1% DMSO. The class given is physicochemical.
Data set [8] relates to HCT116 cells. The data set can be described thus: Annexin V-FITC/PI apoptosis assay by flow cytometry. The following applies: HCT116, 48 h, 3× IC50; non-treated control 2.29%. Type of data set: cell-based, human. From the text: The obtained experimental data are presented in Figure 4 as percentages of early apoptotic cells (Annexin V-positive/PI-negative staining), late apoptotic and necrotic cells (Annexin V-positive/PI-positive staining), and dead cells (Annexin V-negative/PI-positive staining). By the current test (BD Pharmingen protocol)[39] for the cells which are already dead (Annexin V-negative/PI-positive staining), we cannot distinguish between types of the occurred cell death.
Quantitative analysis of apoptotic and necrotic cell death induced by the investigated complexes and CDDP was performed by Annexin V-FITC/PI assay. 2 × 10^5 HCT116 or 3 × 10^5 LS-174 cells were seeded into six-well plates (Thermo Scientific Nunc), and after 24 h of growth, cells were treated with tested compounds or CDDP. Following the 24 h and 48 h incubation time, cells were harvested and resuspended in 200 μL 1 × Binding Buffer (10 mM HEPES/NaOH pH 7.4, 140 mM NaCl, 2.5 mM CaCl2). 100 μL of the cell suspension (∼1 × 10^5 cells) was transferred to a 5 mL round-bottom polystyrene tube (Falcon, Corning) and mixed with 5 μL of both FITC Annexin V (BD Pharmingen[39]) and PI (50 μg/mL in PBS).[65] […] Samples were analyzed using an FACS BD Calibur flow cytometer (Becton–Dickinson, Heidelberg Germany) and Cell Quest computer software.
(A flow cytometer gives signals particle by particle.)

The subject of data set [9] is LS-174 MCTS. The data set can be described thus: MTT assay in 3D multicellular tumor spheroid (MCTS) model. The class given is cell-based, human. The following applies: 3D MCTS, 72 h continuous drug action, read-out: IC50 (μM) ± S.D. LS-174, 3D cell culture model. The source says:
(§4) Due to the complex tissue environment, 3D multicellular tumor spheroid (MCTS) models mimic the in vivo architecture closer than 2D cell cultures, thereby allowing more precise prediction of effectiveness of organic drug candidates as well as metal-based ones in animal models.[41]−[44] The efficacy of HL^5, 5, and cisplatin in the 3D MCTS model was investigated in two human colorectal cancer cell lines (CRC) LS-174 and HCT116. We used ultra-low attachment (ULA) plates for the growth of spheroids. Spheroids were incubated for 72 h and then photographed, and IC50 values were determined using MTT assay. Tumor spheroids of diameter >500 μm selected for treatment reflect to a certain extent the tumor complexity as they are composed of several specialized areas and layers where cells show different phenotypic, functional, and metabolic behaviors.[45] They display an organized architecture with an external layer composed of proliferating cells, an intermediate zone composed of quiescent and senescent cells, and an inner apoptotic and necrotic core which is the result of the reduced distribution of nutrients and oxygen in these areas.[46],[47]
(§5) The MCTSs as 3D cell culture models were established by seeding cells at optimized densities between 500 and 1500 cells/well in the ultra-low attachment (ULA) U96-well plate Thermo Scientific Nunclon Sphera in their respective culture media.[34] […]

The subject of data set [10] is HCT116 MCTS. Described as above. Type of data set: cell-based, human. The note with it: 3D MCTS, 72 h continuous drug action, read-out: IC50 (μM) ± S.D. HCT116, 3D cell culture model.
Description: as §4, §5

Where two headings read alike, the source gives them in different places.

As to `Cc1ccc(C(C)C)cc1.O=C1NCCc2ccccc2-c2[nH]c3ccc([N+]4=Cc5cccc[n+]5[Ru-]4[Cl])cc3c21.[Cl-]` [1a], the IC50 in [1] (72 h continuous drug action) is 89.8 ± 2.1 µM; in [2] it was 32.9 ± 7.1 µM; in [3] it was 91.2 ± 3.5 µM; in data set [4] (72 h continuous drug action), above 200 µM; in data set [5] (72 h continuous drug action), 160 ± 18.2 µM. The “stability by UV-vis absorption spectra” value in data set [6] was “remained intact”.
In the case of `Cc1ccc(C(C)C)cc1.O=C1NCCc2ccccc2-c2[nH]c3ccc([N+]4=Cc5cccc[n+]5[Os-]4[Cl])cc3c21.[Cl-]` [1b], in data set [7], the “Solubility in water/1% DMSO” value is on record as at least 1.0 mg mL^–1. Moreover, the IC50 in data set [1] (72 h continuous drug action) was 84.8 ± 6.6 µM; in data set [2], 40.2 ± 6.7 µM; in data set [3], 71.9 ± 2.6 µM; in data set [4] (72 h continuous drug action) it was 182 ± 2.1 µM; in data set [5] (72 h continuous drug action) it was 91 ± 9.3 µM. Moreover, the “stability by UV-vis absorption spectra” value in data set [6] was “remained intact”.
As to `N.N.[Cl][Pt][Cl]` [CDDP, cis-diamminedichloridoplatinum(II), reference compound], the IC50 amounted to 8 ± 1.1 µM in data set [1] (72 h continuous drug action); 13.6 ± 1.1 µM in data set [2]; 26.4 ± 3.7 µM in data set [3]; 19 ± 0.5 µM in data set [4] (72 h continuous drug action); 17.4 ± 3.5 µM in data set [5] (72 h continuous drug action); 17.8 ± 1.2 µM in data set [9]. Besides, the IC50 in [10] was 19.6 ± 2.2 µM. For the same compound, the “early apoptotic cells (Annexin V-positive/PI-negative)” value in [8] is given as 19.14%.
For the compound `O=C1NCCc2ccccc2-c2[nH]c3ccc(/N=C/c4ccccn4)cc3c21` [HL^1], the IC50 in data set [1] (Homo sapiens, MRC5, 72 h continuous drug action) is 168 ± 15.8 µM; in data set [4] (Homo sapiens, LS174, 72 h continuous drug action), 191 ± 5.8 µM; in [5] (Homo sapiens, A549, 72 h continuous drug action) it was above 200 µM.

These data come from article PMC9768754, “Enriching Chemical Space of Bioactive Scaffolds by New Ring Systems: Benzazocines and Their Metal Complexes as Potential Anticancer Drugs” (Inorganic Chemistry, 2022).
